# According to ChEMBL document CHEMBL4354803, “Synthesis and biological activity of structurally diverse phthalazine derivatives: A systematic review” (Bioorg Med Chem, 2019):
# pIC50: −log10 of the molar value.
# Experiments:
# [1] = target: T1, Poly [ADP-ribose] polymerase 1 (Homo sapiens, UniProt P09874); assay: Inhibition of human PARP1 expressed in Escherichia coli using histone as substrate by ELISA
# [2] = Inhibition of human HeLa cell derived PARP preincubated for 10 mins followed by NAD and double stranded DNA-oligos addition and measured after 45 mins by scintillation counting; type: cell-based
# [3] = test system: MCF7; assay: cells; details: Homo sapiens, MCF7, 24 h
# Description: Cytotoxicity against human MCF7 cells after 24 hrs by MTT assay
# [4] = test system: HepG2; assay: cells; details: Homo sapiens, HepG2, 24 h
# Description: Cytotoxicity against human HepG2 cells after 24 hrs by MTT assay
# [5] = species on record: Mus musculus; assay: animal or person; details: ICR, ip
# [6] = target: T2, NAD-dependent protein deacetylase sirtuin-1 (Homo sapiens) (UniProt Q96EB6); assay: Modulation of SIRT1 (unknown origin) expressed in Escherichia coli BL21(DE3) cells using Ac-EE-K(biotin)-GQSTSSHSK(Ac)NleSTEG-K(5TMR)-EE-NH2 as substrate after 25 mins by mass spectrometry
# T2 sequence (whole entry): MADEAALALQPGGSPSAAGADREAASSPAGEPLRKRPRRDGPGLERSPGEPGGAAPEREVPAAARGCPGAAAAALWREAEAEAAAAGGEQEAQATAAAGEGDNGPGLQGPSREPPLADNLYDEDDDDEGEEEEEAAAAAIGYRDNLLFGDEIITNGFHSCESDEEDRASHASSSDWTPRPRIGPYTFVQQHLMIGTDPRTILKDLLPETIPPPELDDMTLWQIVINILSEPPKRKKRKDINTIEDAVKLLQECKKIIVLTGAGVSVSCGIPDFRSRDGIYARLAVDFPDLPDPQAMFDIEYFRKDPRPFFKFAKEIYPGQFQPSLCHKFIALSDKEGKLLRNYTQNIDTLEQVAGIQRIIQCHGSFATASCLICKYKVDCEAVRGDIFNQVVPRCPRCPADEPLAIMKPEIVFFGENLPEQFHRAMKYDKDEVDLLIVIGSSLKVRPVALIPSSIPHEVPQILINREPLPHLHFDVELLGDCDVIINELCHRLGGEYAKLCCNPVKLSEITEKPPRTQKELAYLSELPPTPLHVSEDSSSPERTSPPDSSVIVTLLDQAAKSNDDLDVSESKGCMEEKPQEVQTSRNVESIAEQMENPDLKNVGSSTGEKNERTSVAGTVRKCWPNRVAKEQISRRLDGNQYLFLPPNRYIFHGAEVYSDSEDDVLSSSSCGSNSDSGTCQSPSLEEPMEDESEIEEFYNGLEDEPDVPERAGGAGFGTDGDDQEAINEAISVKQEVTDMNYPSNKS
# [7] = test system: Mus musculus; assay: Potency index, ratio of valproate ED50 to compound ED50 for Anticonvulsant activity in ip dosed ICR mouse assessed as protection against 50 mA current-induced seizure pretreated for 30 mins followed by seizure induction measured for 60 mins by maximal electroshock seizure test; type: functional
# [8] = test system: Mus musculus; assay: Anticonvulsant activity in ip dosed mouse assessed as protection against PTZ-induced seizure; type: functional
# [9] = target: T3, Aldo-keto reductase family 1 member B1 (Homo sapiens, UniProt P15121); assay: Inhibition of human Aldose reductase
# [10] = test system: HepG2; assay: Potency index, ratio of doxorubicin IC50 to compound IC50 for cytotoxicity against human HepG2 cells by sulforhodamine B assay; type: functional
# [11] = test system: HepG2; assay: Potency index, ratio of sorafenib IC50 to compound IC50 for cytotoxicity against human HepG2 cells by sulforhodamine B assay; type: functional
# [12] = target: T1, Poly [ADP-ribose] polymerase 1; assay: Inhibition of human PARP1 expressed in Escherichia coli incubated for 10 mins by colorimetric assay
# [13] = target: T4, Prostaglandin E synthase (Homo sapiens, UniProt O14684); assay: Inhibition of mPGES-1 in human A549 cells assessed as reduction in […] induced PGE2 release preincubated for 30 mins followed by […] addition and measured after 16 to 20 hrs by HTRF assay; type: cell-based
# T4 sequence (O14684 whole entry): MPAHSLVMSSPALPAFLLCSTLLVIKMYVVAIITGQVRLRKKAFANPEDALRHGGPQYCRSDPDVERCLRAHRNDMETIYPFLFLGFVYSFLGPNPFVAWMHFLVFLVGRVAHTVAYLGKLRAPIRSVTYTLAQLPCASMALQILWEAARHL
# [14] = test system: Rattus norvegicus; assay: In vivo inhibition of Aldose reductase in streptozotocin-induced po dosed rat model of diabetes assessed as reduction in sorbitol accumulation in sciatic nerve administered at 4,7,24 hrs and measured at 27 hrs; type: functional
# [15] = target: T3, Aldo-keto reductase family 1 member B1
# Description: Inhibition of human placenta Aldose reductase
# [16] = target: T1, Poly [ADP-ribose] polymerase 1; assay: Inhibition of N-terminal GST-tagged human PARP1 expressed in a Baculovirus infected Sf9 insect cells using biotinylated substrate incubated for 1 hr by colorimetric method
# [17] = target: T1, Poly [ADP-ribose] polymerase 1; assay: Inhibition of human PARP1 expressed in Escherichia coli incubated for 15 to 40 mins by ELISA
# T1 sequence (P09874 whole entry): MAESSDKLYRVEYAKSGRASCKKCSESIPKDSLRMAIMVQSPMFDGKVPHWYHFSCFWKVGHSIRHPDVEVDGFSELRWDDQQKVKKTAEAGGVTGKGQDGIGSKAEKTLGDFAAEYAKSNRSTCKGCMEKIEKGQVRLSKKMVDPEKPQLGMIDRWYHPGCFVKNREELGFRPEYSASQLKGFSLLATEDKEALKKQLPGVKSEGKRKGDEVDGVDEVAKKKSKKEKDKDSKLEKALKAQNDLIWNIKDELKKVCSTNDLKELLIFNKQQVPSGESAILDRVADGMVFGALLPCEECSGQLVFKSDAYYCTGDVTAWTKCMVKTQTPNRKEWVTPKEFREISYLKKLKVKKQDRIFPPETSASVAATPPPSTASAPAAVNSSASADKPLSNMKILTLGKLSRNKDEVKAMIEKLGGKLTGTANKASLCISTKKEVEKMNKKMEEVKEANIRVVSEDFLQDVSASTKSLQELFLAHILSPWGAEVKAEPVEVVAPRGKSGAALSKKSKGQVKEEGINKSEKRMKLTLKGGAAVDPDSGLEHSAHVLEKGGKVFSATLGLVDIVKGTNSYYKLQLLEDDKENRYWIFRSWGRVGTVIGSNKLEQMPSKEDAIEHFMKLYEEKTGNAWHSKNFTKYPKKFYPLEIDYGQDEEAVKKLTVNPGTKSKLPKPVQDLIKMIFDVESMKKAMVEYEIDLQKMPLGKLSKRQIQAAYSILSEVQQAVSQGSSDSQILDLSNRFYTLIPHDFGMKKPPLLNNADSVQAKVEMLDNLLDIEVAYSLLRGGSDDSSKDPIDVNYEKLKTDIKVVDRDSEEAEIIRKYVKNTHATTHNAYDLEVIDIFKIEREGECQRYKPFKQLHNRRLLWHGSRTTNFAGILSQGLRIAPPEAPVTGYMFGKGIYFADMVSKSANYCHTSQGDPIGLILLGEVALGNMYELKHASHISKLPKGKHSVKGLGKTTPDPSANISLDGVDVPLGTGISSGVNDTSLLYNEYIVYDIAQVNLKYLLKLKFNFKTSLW
compound,measurement,setting,value
CCN1CCCC2CN(C(=O)c3cc(Cc4n[nH]c(=O)c5ccccc45)ccc3F)CC21 (stereo not given),pIC50,[1],8.70
O=C(c1cc(Cc2n[nH]c(=O)c3ccccc23)ccc1F)N1CCNCC1,pIC50,[2],> 7.70
O=c1c2ccccc2c(Cc2ccccc2)nn1CC(=S)NNS(=O)(=O)c1ccccc1,pIC50,[3],4.70
same,pIC50,[4],4.65
O=C(O)CSc1nnc(Cn2[nH]c(=O)c3ccccc3c2=O)o1,ED50,[5],184 µmol/kg
O=C(Nc1cccc2cnn(-c3cccc(C(F)(F)F)c3)c(=O)c12)c1cccc(OCC(O)CO)n1 (stereo not given),EC1.5,[6],< 5 µM
COC(=O)CSc1nnc(Cn2[nH]c(=O)c3ccccc3c2=O)o1,ED50,[5],172 µmol/kg
same,Ratio ED50,[7],10
CN1CC(=O)N(c2cccc(Cc3n[nH]c(=O)c4ccccc34)c2)C1=O,ED50,[8],0.00166 µmol/kg
same,pIC50,[2],> 8.00
O=C(Nc1cccc2cnn(-c3cccc(C(F)(F)F)c3)c(=O)c12)c1cscn1,EC1.5,[6],< 5 µM
CCCC(CCC)C(=O)O [VALPROIC ACID],ED50,[5],1710 µmol/kg
O=C(c1cc(Cc2n[nH]c(=O)c3ccccc23)ccc1F)N1CCN(c2ccccn2)CC1,pIC50,[2],8.52
O=C(Nc1cccc2cnn(-c3cccc(OC(F)(F)F)c3)c(=O)c12)c1cccc(OCC(O)CO)n1 (stereo not given),EC1.5,[6],< 5 µM
O=C(O)Cc1nn(Cc2nc3cc(C(F)(F)F)ccc3s2)c(=O)c2cc3ccccc3cc12,pIC50,[9],7.34
COC1CCN(C(=O)c2cc(Cc3n[nH]c(=O)c4ccccc34)ccc2F)CC1 [AZD2461],pIC50,[2],8.30
O=C1CCC(=O)N1c1cccc(Cc2n[nH]c(=O)c3ccccc23)c1,ED50,[8],0.0016 µmol/kg
same,pIC50,[2],> 8.52
CCOC1CCN(C(=O)c2cc(Cc3n[nH]c(=O)c4ccccc34)ccc2F)CC1,pIC50,[2],8.52
O=C(Cn1nc(Cc2ccccc2)c2ccccc2c1=O)Nc1ccccc1Cl,Ratio IC50,[10],2.9
same,Ratio IC50,[11],2.9
O=C(c1cc(Cc2n[nH]c(=O)c3ccccc23)ccc1F)N1CCn2c(nnc2C2CC2)C1,pIC50,[12],8.08
O=C(O)Cc1nn(Cc2nc3cc(C(F)(F)F)ccc3s2)c(=O)c2ncccc12,pIC50,[9],7.28 to 8.68
O=C(Nc1ccc2cnn(-c3ccc(Br)cc3)c(=O)c2c1)c1c(F)cccc1Cl,pIC50,[13],> 7.30
O=C(O)Cc1nn(Cc2nc3cc(Br)ccc3s2)c(=O)c2ccccc12,ED50,[14],3.6 mg/kg
O=C(O)Cc1nn(Cc2nc3cc(F)cc(F)c3o2)c(=O)c2ccccc12,pIC50,[15],7.28 to 8.49
same,ED50,[14],5.6 mg/kg
Cc1c(CC(=O)O)nn(Cc2nc3cc(F)cc(F)c3s2)c(=O)c1C,pIC50,[9],8.30 to 8.49
O=C(CCCn1nc(-c2ccccc2)c2ccccc2c1=O)Nc1cccc(Cl)c1,pIC50,[16],7.01
O=C(c1cc(Cc2n[nH]c(=O)c3ccccc23)ccc1F)N1CCn2cnnc2C1,pIC50,[17],5.30
